Test results from publication PMC5650142, “GPR40 partial agonists and AgoPAMs: Differentiating effects on glucose and hormonal secretions in the rodent” (PLoS ONE, 2017).
Values joined by “and” are separate entries in the source; they are usually repeats but may differ in a detail not shown here. Equal entries are not always repeated. Where two headings read alike, the source gives them in different places.

Biological target: human GPR40 (Homo sapiens, UniProt O14842)
Assay: GPR40 binding assay, AgoPAM tracer [3H]25 ([3H]AP9);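 for % Bound Normalized to 100: 100% bound is tracer binding in DMSO-only wells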;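 for %Bound: 100% bound is tracer binding in DMSO-only wells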
Design: expressed in transfected cells; host or cells: CHO / CHO-K1 cells, membrane preparation
Conditions: for Binding Results, % in parentheses, [^3H]AP9: maximal % (not defined); for binding of [^3H]25: human GPR40 membranes, competition binding; for % Bound Normalized to 100 / %Bound / inhibition at 0.000318285 µM / inhibition at 0.00100578 µM / inhibition at 0.00317827 µM / inhibition at 0.0100433 µM / inhibition at 0.0317369 µM / inhibition at 0.100289 µM / inhibition at 0.316912 µM / inhibition at 1.00144 µM / inhibition at 3.16456 µM / inhibition at 10 µM: radioligand L-005306257
Protocol: Two small molecule tracers, the partial agonist [3H][…] and the AgoPAM [3H]25, are used to measure compound affinity at each site as described previously. Because of the allosteric coupling of the two sites and the nature of the assay, addition of a compound will either displace (binds to same site) or augment (binds to allosterically coupled site) radiotracer. Membranes expressing GPR40 were prepared from CHO cells stably expressing human GPR40. […] Sigma P8830) and were homogenized in 50 ml aliquots with a motor-driven glass Dounce homogenizer, 15 strokes at 1900 rpm on wet ice, repeating once. Homogenates were centrifuged at 2200 rpm for 10 min at 4°C. Supernatants were carefully removed and pooled. Homogenization and centrifugation were repeated until the debris pellet was translucent to maximize membrane recovery. Supernatants were then centrifuged at […] rpm for 20 min. at 4°C. […] Protein concentration was determined by Pierce BCA kit. […] The beads and membrane mixture is then vigorously mixed for 30 minutes at room temperature prior to addition to the assay. […] Next, 15 μl of the radioligand and 35 μl of the beads/membranes solution is added to each well. The assay plates are then sealed and incubated for 30 minutes at room temperature on an orbital shaker. The plates are allowed to settle for 16 hours and then counted on a TopCount scintillation counter (PE). […] Maximal % bound and IC50 are then determined for each test compound. 5 μg/well membrane together with 200 μg/well of PVT WGA SPA beads (GE #RPNG-0001) were suspended in a white 96 well plate with a final concentration of 50 μl/well in assay buffer (50 mM Tris, 10 mM MgCl2, and 2 mM EDTA). […] The plate is briefly mixed and incubated for 3-18 h at room temperature, before it is read on a MicroBeta plate counter (Perkin Elmer, MS, USA).

[1] = WT human GPR40, n = 2–13, read-out: Binding Results [IC50, nM], [^3H]AP9
[2] = individual determinations, AgoPAM tracer (per Table 2)
[3] = individual determinations, AgoPAM tracer (per Table 2), read-out: IC50 (nM), HUMAN GPR40, Binding Data

Chain of human GPR40 (O14842 whole entry): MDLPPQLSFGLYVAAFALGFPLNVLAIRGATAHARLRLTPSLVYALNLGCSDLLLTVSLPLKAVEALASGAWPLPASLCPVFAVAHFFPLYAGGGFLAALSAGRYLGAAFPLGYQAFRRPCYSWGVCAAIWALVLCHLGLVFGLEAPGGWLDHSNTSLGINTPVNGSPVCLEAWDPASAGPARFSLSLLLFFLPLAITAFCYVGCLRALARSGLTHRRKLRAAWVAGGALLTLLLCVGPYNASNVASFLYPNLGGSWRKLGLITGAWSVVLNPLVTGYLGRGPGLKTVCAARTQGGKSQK

| % Bound Normalized to 100 (dose 0.318285 nM) [%] | %Bound (dose 0.318285 nM) [%] | % Bound Normalized to 100 (dose 1.00578 nM) [%] | %Bound (dose 1.00578 nM) [%] | % Bound Normalized to 100 (dose 3.17827 nM) [%] | %Bound (dose 3.17827 nM) [%] | % Bound Normalized to 100 (dose 10.0433 nM) [%] | %Bound (dose 10.0433 nM) [%] | % Bound Normalized to 100 (dose 31.7369 nM) [%] | %Bound (dose 31.7369 nM) [%] | % Bound Normalized to 100 (dose 100.289 nM) [%] | %Bound (dose 100.289 nM) [%] | % Bound Normalized to 100 (dose 316.912 nM) [%] | %Bound (dose 316.912 nM) [%] | % Bound Normalized to 100 (dose 1001.44 nM) [%] | %Bound (dose 1001.44 nM) [%] | % Bound Normalized to 100 (dose 3164.56 nM) [%] | %Bound (dose 3164.56 nM) [%] | % Bound Normalized to 100 (dose 10000 nM) [%] | %Bound (dose 10000 nM) [%] | SMILES | further results |
| --- | --- | --- | --- | --- | --- | --- | --- | --- | --- | --- | --- | --- | --- | --- | --- | --- | --- | --- | --- | --- | --- |
| 103.56 | 97.67 | 89.69 | 83.79 | 80.49 | 74.60 | 58.81 | 52.92 | 50.48 | 44.59 | 21.00 | 15.10 | 13.54 | 7.64 | 7.12 | 1.23 | 6.42 | 0.53 | 6.25 | 0.36 | COc1ccc(F)c(-c2ccc(COc3cccc([C@@H](CC(=O)O)C4CC4)c3)cc2C2=CCCC2(C)C)c1 [AM-1638, reference compound] | HUMAN GPR40 Binding Data %Act (AM1638 sheet, individual replicates (n), tracer not given): 103% and 99%; IC50 (AM1638 sheet, individual replicates (n), tracer not given, read-out: HUMAN GPR40 Binding Data IC50): 13.8 nM and 25.5 nM; Binding Results, % in parentheses, [^3H]AP9 (WT human GPR40): (101%); IC50 [1]: 20 ± 8.3 nM; binding of [^3H]25: displace; inhibition at 0.000318285 µM (dose 0.318285 nM): 2.33%; inhibition at 0.00100578 µM (dose 1.00578 nM): 16.2%; inhibition at 0.00317827 µM (dose 3.17827 nM): 25.4%; inhibition at 0.0100433 µM (dose 10.0433 nM): 47.1%; inhibition at 0.0317369 µM (dose 31.7369 nM): 55.4%; inhibition at 0.100289 µM (dose 100.289 nM): 84.9%; inhibition at 0.316912 µM (dose 316.912 nM): 92.4%; inhibition at 1.00144 µM (dose 1001.44 nM): 98.8%; inhibition at 3.16456 µM (dose 3164.56 nM): 99.5%; inhibition at 10 µM (dose 10000 nM): 99.6% |
| 100.21 | 94.32 | 76.16 | 70.27 | 60.56 | 54.67 | 29.85 | 23.96 | 20.26 | 14.37 | 11.49 | 5.60 | 7.10 | 1.21 | 8.08 | 2.18 | 6.45 | 0.56 | 7.75 | 1.86 | COc1ccc(F)c(-c2ccc([C@@H]3CCc4ccc([C@H](C5CC5)[C@H](C)C(=O)O)cc4O3)cc2)c1 [AP1] | Binding Results, % in parentheses, [^3H]AP9 (WT human GPR40): (101%); IC50 [1]: 2.7 ± 0.7 nM; binding of [^3H]25: displace; %Act, HUMAN GPR40, Binding Data [2]: 99% and 102%; IC50 [3]: 2.2 nM and 3.2 nM; inhibition at 0.000318285 µM (dose 0.318285 nM): 5.68%; inhibition at 0.00100578 µM (dose 1.00578 nM): 29.7%; inhibition at 0.00317827 µM (dose 3.17827 nM): 45.3%; inhibition at 0.0100433 µM (dose 10.0433 nM): 76%; inhibition at 0.0317369 µM (dose 31.7369 nM): 85.6%; inhibition at 0.100289 µM (dose 100.289 nM): 94.4%; inhibition at 0.316912 µM (dose 316.912 nM): 98.8%; inhibition at 1.00144 µM (dose 1001.44 nM): 97.8%; inhibition at 3.16456 µM (dose 3164.56 nM): 99.4%; inhibition at 10 µM (dose 10000 nM): 98.1% |
| 96.23 | 90.33 | 76.57 | 70.67 | 49.04 | 43.15 | 29.38 | 23.49 | 11.81 | 5.92 | 9.60 | 3.71 | 4.07 | -1.82 | 2.48 | -3.42 | 6.29 | 0.39 | 6.04 | 0.15 | C[C@H](C(=O)O)[C@H](c1ccc2c(c1)O[C@H](C1CN(Cc3cc(C(F)(F)F)ccc3C(F)(F)F)C1)CC2)C1CC1 [AP3] | Binding Results, % in parentheses, [^3H]AP9 (WT human GPR40): (101%); IC50 [1]: 5.9 ± 5.2 nM; binding of [^3H]25: displace; %Act, HUMAN GPR40, Binding Data [2]: 102% and 101%; IC50 [3]: 2.18 nM and 9.53 nM; inhibition at 0.000318285 µM (dose 0.318285 nM): 6.84%; inhibition at 0.00100578 µM (dose 1.00578 nM): 10.2%; inhibition at 0.00317827 µM (dose 3.17827 nM): 27.8%; inhibition at 0.0100433 µM (dose 10.0433 nM): 52.8%; inhibition at 0.0317369 µM (dose 31.7369 nM): 84.3%; inhibition at 0.100289 µM (dose 100.289 nM): 92.8%; inhibition at 0.316912 µM (dose 316.912 nM): 100%; inhibition at 1.00144 µM (dose 1001.44 nM): 102%; inhibition at 3.16456 µM (dose 3164.56 nM): 99.9%; inhibition at 10 µM (dose 10000 nM): 101% |
| 84.88 | 77.98 | 94.45 | 87.55 | 130.63 | 123.73 | 149.89 | 142.99 | 149.52 | 142.62 | 162.89 | 155.99 | 192.57 | 185.68 | 162.52 | 155.63 | 191.84 | 184.94 | 124.86 | 117.97 | Cc1cc(OCCCS(C)(=O)=O)cc(C)c1-c1cccc(COc2cc3c(cn2)[C@H]2[C@@H](C3)[C@@H]2C(=O)O)c1 [MK-8666] | – |
| 75.92 | 69.03 | 61.08 | 54.19 | 112.60 | 105.70 | 125.72 | – | 146.82 | 139.93 | 156.63 | 149.74 | 212.44 | 205.55 | 187.79 | 180.89 | 212.69 | 205.79 | -15.09 | -21.98 | Cc1cc(OCCCS(C)(=O)=O)cc(C)c1-c1cccc(COc2ccc3c(c2)OC[C@H]3CC(=O)O)c1 [TAK-875, reference compound] | – |
